Columns and labels:
Assay type in all cases: functional
Design in all cases: concentration or dose not given beside the values
[1] = tested on: Plasmodium berghei; assay: MMV: P. berghei-infected blood was withdrawn from mice by cardiac pucture before being immediately added to ookinete culture medium containing test compounds. 26 hr later, GFP-positive ookinetes were identified and counted by automated microscopy. All compounds were tested in 4 independent experiments and data presented here is the mean.
[2] = tested on: Plasmodium falciparum; assay: (§1) MMV: P. falciparum NF54 functionally mature Stage V gametocytes were incubated for 24 hr in the presence of the test compounds. Gamete formation was then triggered by addition of 2uM xantheurenic acid and temperature decrease to ~20C. Male gamete exflagellation was recorded and analysed by automated microscopy after 20 min. All compounds were tested in 4 independent experiments and data presented here is the mean.
[3] = tested on: Plasmodium falciparum; assay: as §1, with “Female” for “Male”, “formation” for “exflagellation”, “24 hr later” for “and analysed”, “detection of surface labelling of female gametes with a Cy3-conjugated antibody reactive to Pfs25.” for “after 20 min.”; details: NF54, 24 h

Structure (SMILES)	inhibition [1]	inhibition [2]	inhibition [3]
N=c1n(CCN2CCCCC2)c2ccccc2n1CC(=O)c1ccc(Cl)c(Cl)c1	-13.93%	-14.4%	-16.3%
CCOc1c(Cl)cc(CNCC(O)c2ccccc2)cc1OC (centres undefined)	-11.86%	-11.9%	-14.1%
CCOC(=O)c1c(C)n(-c2ccccc2)c2ccc(OC(=O)c3cc(OC)c(OC)c(OC)c3)cc12	-17.17%	18.3%	-31.5%
COc1ccc(CCN2C(=O)c3[nH]nc(-c4cc(Cl)c(C)cc4O)c3C2c2ccccc2F)cc1 (centres undefined)	-13.65%	-17.3%	-34.2%
CC(C)(C)CC(C)(C)NCC(O)COc1ccc(Cl)cc1Cl (centres undefined)	-15.58%	-10.7%	-45.2%
O=C(Nc1ccc(Br)cc1)Nc1cccc(Cl)c1	-16.14%	24.2%	-16.5%
COc1ccc(-n2ccnc2SCC(=O)Nc2cc(C)ccc2C)c(OC)c1	-11.96%	12%	-9.31%
Cl.N=c1n(CCN2CCCCC2)c2ccccc2n1CC(O)c1cccc(Br)c1 (centres undefined)	-14.54%	-19.3%	-26.6%
CCN1CCN(Cc2ccc(NC(=O)c3cc4ccc5cccnc5c4[nH]3)cc2)CC1	-14.48%	15.9%	-5.39%
COc1cccc(Nc2nc(NCCO)c3ccccc3n2)c1.Cl	-13.29%	-137%	-29.6%
O=C(O)C1Cc2c([nH]c3ccccc23)C(c2ccc(Cl)cc2Cl)N1 (centres undefined)	-13.83%	21%	-17.3%
CCOc1ccc(N2C(N)=NC(N)=NC2(C)C)cc1.Cl	-12.23%	66.8%	-42%
Cc1ccc(N2C(=O)C3C(C2=O)C2(c4ccccc4)C(=O)C3(c3ccccc3)C(c3ccccc3)=C2c2ccccc2)cc1 (centres undefined)	-15.1%	21.2%	-19.9%
CCCCCCc1cc2cc(-c3csc(C=Cc4ccccc4)n3)c(=O)oc2cc1O	-12.07%	-65.7%	-35.1%
CN(C)CCCNCc1ccc(-c2ccc(F)c(Cl)c2)o1.Cl	-12.37%	51.9%	38.4%
CCC(c1ccccc1)c1nn2c(-c3cccs3)nnc2s1 (centres undefined)	-15.76%	1.43%	-48.4%
CCOc1ccc(CN2CCN(CC(O)COc3ccc(OCC(O)CN4CCN(Cc5ccc(OCC)cc5)CC4)cc3)CC2)cc1 (centres undefined)	-13.58%	-9.77%	-37.4%
CC(C)=CCN1CCC(C(=O)Nc2ccc(-c3nc4ccccc4[nH]3)cc2)CC1	-16.54%	-15.4%	-19.7%
CCN(CC)CCn1c(=N)n(CC(O)c2ccc(Cl)c(Cl)c2)c2ccccc21.Cl (centres undefined)	-13%	-66.5%	7.92%
O=C(NC1CCN(Cc2ccccc2)CC1)c1cc(C(=O)NC2CCN(Cc3ccccc3)CC2)cc(C(=O)NC2CCN(Cc3ccccc3)CC2)c1	-11.8%	57%	-6.87%
Nc1ccc(-c2nc3cc(Cc4ccc5[nH]c(-c6ccc(N)cc6)nc5c4)ccc3[nH]2)cc1	-14.26%	26.6%	2.76%

Structure (SMILES)	inhibition [1]	inhibition [2]	inhibition [3]
COc1ccc(CNC2CCN(c3ccc(NC(=O)c4cccc(Cl)c4)cc3)CC2)cc1OC	-11.96%	15%	-36.5%
O=C(Nc1ccc(CN2CCOCC2)cc1)c1ccc(-c2cc(Cl)ccc2Cl)o1	-15.91%	2.57%	-21.4%
CCOc1ccc2nc(C)cc(Nc3ccc(N(C)C)cc3)c2c1.Cl	-13.58%	-23.6%	-42.3%
COc1ccc(NC(=O)C2c3ccccc3C(=O)N(CC(C)C)C2c2cccs2)cc1Cl (centres undefined)	-15.31%	8.99%	-2.16%
COCCn1c(C)nc2ccccc2c1=O	-11.98%	22.3%	-15.4%
O=C(Nc1cccc(-c2nc3ccccc3[nH]2)c1)c1cccc(NC(=O)c2ccco2)c1	-15.24%	31.6%	-35.1%
O=C(NC1CCN(Cc2ccccc2)CC1)c1cc(-c2cccnc2)nc2ccc(Cl)cc12	-13.2%	-6.01%	-32.7%
COc1ccc(C(=O)C(CCC(CNC(C)(C)C)C(=O)c2ccc(OC)cc2)CNC(C)(C)C)cc1 (centres undefined)	-12.62%	16.3%	4.72%
COc1ccc(C2C(C(=O)Nc3cccc(OC)c3)c3ccccc3C(=O)N2C2CCCCC2)cc1 (centres undefined)	-12.06%	46.2%	-25.1%
COc1cc(OC)c(N(C)C(=O)c2cc3c(s2)-c2ccccc2S(=O)(=O)C3)cc1Cl	-16.25%	7.68%	-14.9%
CCOc1ccccc1NC(=O)CN1CCN(C(=O)c2ccco2)CC1	-13.05%	19.3%	12.9%
COc1cc(C(=O)ON=C(N)Cc2cccc3ccccc23)cc(OC)c1OC	-15.26%	-12.8%	-26.8%
CCN(CC)CCCNc1ccnc2cc3ccccc3cc12	-14.18%	30.2%	20.2%
Cc1ccccc1OCCSc1nc2ccc(NC(=O)c3ccccc3)cc2s1	-15.11%	5.46%	-13.8%
COc1ccc(-c2nonc2NC(=O)c2cccc(Cl)c2)cc1OC	-15.75%	18.1%	12%
Cc1cc(NC(=O)C2c3ccccc3C(=O)N(CC(C)C)C2c2cccs2)no1 (centres undefined)	-16.54%	52.5%	40.3%
COc1cc(-c2nc(-c3ccccc3)c(-c3ccccc3)[nH]2)cc(OC)c1O	-13.75%	5%	-41.1%
Cc1ccc(-c2nc3ccccc3o2)cc1NCc1cc(Cc2ccccc2)ccc1O	-14.9%	13.9%	-8.19%
CCOc1cc2c(cc1OCC)C(c1cc(C)c(O)c(C)c1)NCC2.Cl (centres undefined)	-16.67%	-7.71%	20.2%
COc1cc(SC)ccc1C(=O)N1CCCC(C)C1 (centres undefined)	-13.09%	23.2%	6.66%
CCc1ccc(CNCC(O)c2ccccc2)cc1.Cl (centres undefined)	-12.46%	-40.9%	-20.9%

Structure (SMILES)	inhibition [1]	inhibition [2]	inhibition [3]
COc1ccccc1CNC(=O)C1c2ccccc2C(=O)N(CC(C)C)C1c1cccs1 (centres undefined)	-12.03%	8.38%	-15.9%
OC(CNC1CCCC1)Cn1c2ccccc2c2ccccc21 (centres undefined)	-16.75%	-4.27%	12.4%
Cc1ccc(NC(=O)Nc2cccc(Cl)c2)cc1F	-16.5%	2.14%	-4.87%
O=C(O)C(=O)O.Oc1ccc(Br)cc1CN1CCN(Cc2cccc(F)c2)CC1	-11.78%	27.2%	-17.6%
COc1ccc(-c2cc(=O)oc3c4c(ccc23)OCN(Cc2ccc(F)cc2)C4)cc1	-11.79%	-29.3%	-14.6%
CCCCC(O)(c1ccc(Cl)cc1)C(CN1CCOCC1)c1ccc(Cl)cc1.Cl (centres undefined)	-12.32%	-10.1%	-22.4%
CN(C)c1ccc(N2C(N)=NC(N)=NC2(C)C)cc1	-13.4%	71.6%	-61.8%
CCOc1ccc(Nc2ccnc3cc(Cl)ccc23)cc1	-13.78%	-4.26%	-52.9%
Clc1ccc2[nH]c3c(NCCCN4CCOCC4)ncnc3c2c1	-16.54%	21.6%	-15.9%
COc1ccc(Nc2nc(NCc3ccccc3)c3ccccc3n2)cc1	-12.84%	-30.2%	-14.7%
COc1cc2c(cc1OC)C1=NNC(=O)C1=NC(C)(C)C2	-11.77%	52.9%	-26.2%
CCCCCCc1cc(O)c2c3c(c(=O)oc2c1)CCC(C)C3 (centres undefined)	-17.21%	-1.29%	-7.13%
CCOc1ccc2nc(C)cc(Nc3ccc(Br)cc3)c2c1	-16.41%	-29.1%	-27.4%
COc1cc2c3cc1Oc1c(OC)c(OC)cc4c1C(Cc1ccc(O)c(c1)Oc1ccc(cc1)CC3N(C)CC2)N(C)CC4.Cl (centres undefined)	-16.79%	-64.1%	-37.2%
CCOc1c(Cl)cc(CNC(C)C(O)c2ccccc2)cc1OC (centres undefined)	-12.71%	11.3%	-16%
CCOC(=O)C1CCN(C(=O)CN2C(=O)c3ccccc3C2c2c[nH]c3ccccc23)CC1 (centres undefined)	-16.49%	32.6%	-26%
Cc1ccc(N2C3c4ccccc4N(S(=O)(=O)c4ccc(C)cc4)C2c2ccccc2N3S(=O)(=O)c2ccc(C)cc2)cc1	-13.78%	24.2%	-6.27%
O=C(NCC1Cc2cccc(-c3ccncc3)c2O1)c1csc2c1CCCC2 (centres undefined)	-13.38%	20.6%	-19.3%
CCc1ccc(Nc2cc(C)nc3nc(C)nn23)cc1	-14.94%	20.5%	-17.7%
CCOC(=O)C1=CN(C)C=C(C(=O)OCC)C1c1cc(Br)c(OCC)c(OC)c1	-13.86%	22.3%	-20.1%
CN1CCN(c2nc(Nc3ccc(O)cc3)nc3ccccc23)CC1.Cl	-15.95%	2%	-25.1%

Reference: ChEMBL document CHEMBL3301451, “MMV Malaria Box gametocyte functional viability assay screening”
